Molecules are shown by their SMILES.

One series has as its system Male Kunming mice. As to the kind of experiment: Test for latent period and persistent period of anesthesia in mice. The format is in vivo. The settings on record: 6 mg/kg (3*ED50), caudal vein, n = 5; for Latent period: time for disappearance of righting reflex; for Persistent period: time for recovery. The protocol: Test of the etomidate derivative of the present invention for latent period and persistent period of anesthesia in mice
Male Kunming mice were divided into groups, 5 for each group. The test drug was administered by injection at a constant rate via caudal vein for 10 seconds. The time for disappearance of righting reflex (latent period) and the time for recovery (persistent period) were recorded.

A short description of series [1]: Test of ED50 and LD50 of anesthesia in mice (sequential method; disappearance of righting reflex or death). It is filed as in vivo. The settings on record: mouse, in vivo; male KM mice, caudal vein injection over 10 s, death, n = 10-20; range in brackets. The procedure:
(§1) Test of ED50 and LD50 of the etomidate derivative of the present invention in mice
(§2) Accurately weighed compounds 14, 15, 16 and 18 (5 mg for each of the compounds) were placed in 10 ml centrifuge tubes, respectively. Then 1 ml blank emulsion (20% soybean oil blank emulsion) was added to each tube, and the mixture was sonicated in an ultrasonic apparatus for several minutes to obtain a 5 mg/ml homogeneous emulsion, which was drawn by an injection syringe right before use. An etomidate fat emulsion injection (commercially available, 2 mg/ml) was used as control. The administration concentration in mice was fixed, and the administration volume varied according to actual situation.
(§3) ED50 and LD50 values concerning anesthesia were determined using a sequential method. Administrations in this test were performed on qualified healthy KM mice (male) by injection at a constant rate via caudal vein for 10 seconds. Before the test, a preliminary trial test was conducted to determine an approximate dosage (administration volume) that leads to anesthetization (or death) in animals, which was then set as the intermediate dosage in the formal test. 2-3 Dosage groups were set above and below the intermediate dosage group with an interval of 0.8. The disappearance of righting reflex or death was used as indicators of pharmacological efficacy or toxicity, respectively. The formal test began with the administration of the intermediate dosage. If animals were anesthetized, a lower dosage was administered; otherwise if animals were not anesthetized, a higher dosage was administered, until the cycle was repeated for 3-4 times. LD50 and ED50 values of anesthesia were calculated by a sequential method on aot425 software. TI was calculated according to the following equation: TI=LD50/ED50.

The next series relates to KM mice (male). The series is described as above. The format is in vivo. The settings on record: for ED50: Mus musculus; for TI: TI=LD50/ED50, mice. The procedure:
as §1, §2, §3

A further series deals with mice. As to the kind of experiment: Influence on the blood pressure and followed-up reactions after recovery in mice anesthesia test. It is filed as in vivo. The settings on record: for grooming / tail bleeding: few / tail bleeding: much / tail bleeding: none / tremor: after administration & before anesthesia.
The test system of series [2] is secretion of cortisol and/or corticosterone. The conditions noted are these: background, literature; cited from earlier work.
A further series deals with T1, 11β-hydroxylase (Homo sapiens, UniProt P15538).
T1 sequence (P15538 25-503): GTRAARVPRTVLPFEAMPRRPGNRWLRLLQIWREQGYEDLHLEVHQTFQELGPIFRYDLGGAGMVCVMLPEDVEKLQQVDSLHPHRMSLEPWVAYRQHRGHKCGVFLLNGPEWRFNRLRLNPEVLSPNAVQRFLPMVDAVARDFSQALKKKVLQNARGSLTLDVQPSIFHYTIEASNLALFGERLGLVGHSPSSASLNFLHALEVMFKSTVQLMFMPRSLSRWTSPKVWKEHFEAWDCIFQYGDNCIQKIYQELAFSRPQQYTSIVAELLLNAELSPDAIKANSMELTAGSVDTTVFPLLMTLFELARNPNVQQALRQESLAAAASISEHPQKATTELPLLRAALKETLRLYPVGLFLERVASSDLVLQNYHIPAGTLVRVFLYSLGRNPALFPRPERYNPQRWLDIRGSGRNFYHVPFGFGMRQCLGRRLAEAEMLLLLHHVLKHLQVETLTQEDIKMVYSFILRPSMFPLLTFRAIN
The conditions noted are these: background statement; cited from earlier work.

The conditions of series [3]: background, literature; cited from earlier work.

In the series on Male Kunming mice, `CCOC(=O)c1c(F)ncn1[C@H](C)c1ccccc1` [Compound 16, ethyl R-1-(1-phenethyl)-1H-4-fluoroimidazole-5-carboxylate] had a Walking time of 98.10 ± 63.96 s, a Latent period of 5.80 ± 0.79 s and a Persistent period of 82.10 ± 20.18 s. In addition, in series [1], the LD50 was 46.5 mg/kg. In the series with KM mice (male), this compound gave a median effective dose (ED50) of 2 mg/kg and a TI of 23. Moreover, in the series on mice, the grooming was 10%, the “tail bleeding: few” value came out at 60%, the “tail bleeding: much” value is 30% and the “tail bleeding: none” value was 10%. The tremor in the series with mice is on record as 70%. In the series on mice (post-recovery), this compound yielded a jump of 20% and a quiet of 80%.

`COC(=O)c1c(F)ncn1[C@H](C)c1ccccc1` [Compound 15, methyl R-1-(1-phenethyl)-1H-4-fluoroimidazole-5-carboxylate]: in the series on Male Kunming mice, the Walking time was determined as 68.80 ± 30.10 s, the Latent period came out at 5.90 ± 0.88 s and the Persistent period was 83.60 ± 29.13 s. In series [1], this compound registered an LD50 of 48.4 mg/kg. In the series with KM mice (male), this compound gave a 50% effective dose (ED50) of 2 mg/kg and a TI of 24. Also, in the series on mice, the “tail bleeding: few” value is 50%, the “tail bleeding: much” value was determined as 40%, the “tail bleeding: none” value was found to be 10% and the tremor turned out to be 70%. The compound further displayed a quiet in the series with mice (post-recovery) of 100%.

In the case of `CCOC(=O)c1cncn1[C@H](C)c1ccccc1` [Etomidate, ethyl R-(+)-1-(1-phenethyl)-1H-imidazole-5-carboxylate], in the series with Male Kunming mice, the Walking time is on record as 156.30 ± 120.78 s, the Latent period was 5.40 ± 0.52 s and the Persistent period is reported as 175.50 ± 100.09 s. In series [2], the “inhibitory effect on the secretion of cortisol and/or corticosterone” value (from here on “inhibitory effect on the secretion”) is “reduce the secretion”. This compound gave an LD50 in series [1] of 50.3 mg/kg. Also, in the series on KM mice (male), the ED50 came to 2 mg/kg and the TI is reported as 25. Further, in the series with mice, the grooming was 20%, the “tail bleeding: few” value is 50%, the “tail bleeding: much” value is listed as 10% and the “tail bleeding: none” value amounted to 40%. The tremor in the series on mice was found to be 80%. In the series with mice (post-recovery), this compound yielded a convulsion of 10%, a jump of 40% and a quiet of 50%. Also, at 11β-hydroxylase, the “inhibitory effect on 11β-hydroxylase” value is “inhibitory effect”.

`CCOC(=O)c1cccn1[C@H](C)c1ccccc1` [Formula 8]: the “inhibitory effect on the secretion” value in series [2] is on record as “little inhibition”. For the same compound, in series [3], the “anesthetic effect / activity” value was “decreased anesthetic activity” and the duration of action entry is on record as “prolonged duration of action”.

In the case of `COC(=O)CCOC(=O)c1cncn1[C@H](C)c1ccccc1` [Formula 7, Methoxycarbonyl-etomidate], the “inhibitory effect on the secretion” value in series [2] is given as “lower inhibitory effect”. Also, the “anesthetic effect / activity” value in series [3] is “drastically decreased anesthetic effect”.

As usually defined, the LD50 is the dose at which mortality reaches 50%. Lower therefore signals a more toxic substance. What is called ED50 is the midpoint of the dose-response relation.

Source of the values: US10392352B2, “Etomidate derivative and intermediate, preparation method and use thereof” (JIANGSU NHWALUOKANG PHARMACEUTICAL RESEARCH AND DEVELOPMENT …, priority 2015, dated 2019).
